Where a SMILES comes first, the peptide text is derived from it. Bridges are numbered along the chain shown (N, C = ends). [ ]: non-standard residue; d: D form. The star is where a group is joined. DOTA = O=C(O)CN1CCN(CC(=O)O)CCN(CC(=O)*)CCN(CC(=O)O)CC1; Phe(4-CONH2) = NC(=O)c1ccc(C[C@H](N)C(=O)O)cc1; Pro(cis-4-F) = O=C(O)[C@@H]1C[C@H](F)CN1; Hyp = O=C(O)[C@@H]1C[C@@H](O)CN1; Butoxycarbonyl = CCCCOC(=O)*; Orn = NCCC[C@H](N)C(=O)O; Nva = CCC[C@H](N)C(=O)O

Data on one compound can be found in patent EP4610269A1, “UROKINASE PLASMINOGEN ACTIVATOR SURFACE RECEPTOR (UPAR) LIGANDS FOR DIAGNOSTIC OR THERAPEUTIC USE” (3B Pharmaceuticals GmbH, priority 2024, dated 2025).

A short description of data set [1]: Plasma stability assay (mouse plasma). Format: in vitro ADME. The conditions noted are these: mouse plasma (sodium citrate 3.7%), 37°C, LC-MS quantification, read-out: % intact compound remaining after 6h incubation Mouse plasma. In a few lines:
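Compound from a 0.5 mM DMSO stock was spiked into sodium-citrate human or mouse plasma and incubated at 37°C for 0 and 6 h in duplicate. After protein precipitation with internal standard, intact compound was quantified by UHPLC-Q-TOF MS (positive ESI) against matrix calibration, reported as % remaining after 6 h.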

The target of the next data set is T1, human uPAR (uPAR-Fc) (Homo sapiens, UniProt Q03405).
T1 construct: comprising amino acids Leu23-Arg303 according to UniProt entry Q03405.1; purchased R&D Systems 10378-UK-100
The data set is described as follows: Surface plasmon resonance (SPR) assay, single cycle kinetics. Format: binding. As to conditions: pKD category for uPAR SPR activity assay; uPAR-Fc on Protein A-Chip, 25°C; read-out: pKD CAT (converted). In a few lines:
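uPAR-Fc (Leu23-Arg303 extracellular domains, human IgG1 Fc) captured on Protein A chip to ~2000 RU; single-cycle kinetics at 25°C in HEPES running buffer pH 7.4 with 0.1% DMSO. KD from double-referenced sensorgrams fitted to 1:1 Langmuir model, reported as pKD.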

The nature of data set [2]: Plasma stability assay (human plasma). Format: in vitro ADME. The conditions noted are these: human plasma (sodium citrate 3.7%), 37°C, LC-MS quantification, read-out: % intact compound remaining after 6h incubation Human plasma. As to the method: In order to determine the stability of selected compounds of the invention in human and mouse plasma, a plasma stability assay was carried out. Such plasma stability assay measures degradation of compounds of the present invention in blood plasma. This is an important characteristic of a compound as compounds, with the exception of pro-drugs, which rapidly degrade in plasma, generally show poor in vivo efficacy. […] The stability is sufficient for the diagnostic, therapeutic and theragnostic use of these compounds according to the present invention.
The plasma stability samples were prepared by spiking 50 µl plasma aliquots (all sodium citrate 3.7%) with 1 µl of a 0.5 mM compound stock solution in DMSO. After vortexing the samples were incubated in a Thermomixer at 37°C for 0 and 6 hours. After incubation the samples were stored on ice until further treatment. All samples were prepared in duplicates.
A suitable internal standard was added to each sample (1 µl of a 0.5 mM stock solution in DMSO). Protein precipitation was performed using two different methods depending on the compound conditions as indicated in Table 13. • A) 250 µl of acetonitrile containing 1% trifluoroacetic acid was added. […]
Quantitation was performed by external matrix calibration with internal standard using the integrated analyte signals.
Additionally, recovery was determined by spiking a pure plasma sample that only contained the internal standard after treatment with a certain amount of the compound.
Carry-over was evaluated by analysis of a blank sample (20% acetonitrile) after the highest calibration sample.
The result is stated as "% intact compound remaining after 6 h incubation" and means that from the amount of material at the start of the experiment the stated percentage is detected as unchanged material at the end of the experiment by LC-MS quantification. […]

T1 sequence (Q03405 23-303): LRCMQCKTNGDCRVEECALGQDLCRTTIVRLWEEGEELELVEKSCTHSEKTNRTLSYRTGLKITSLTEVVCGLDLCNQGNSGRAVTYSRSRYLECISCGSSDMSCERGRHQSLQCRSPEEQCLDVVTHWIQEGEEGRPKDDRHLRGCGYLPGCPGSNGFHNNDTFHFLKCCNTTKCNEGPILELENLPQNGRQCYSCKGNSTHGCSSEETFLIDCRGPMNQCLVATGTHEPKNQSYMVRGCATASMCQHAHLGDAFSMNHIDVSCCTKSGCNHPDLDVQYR

`CCCCOC(=O)N[C@H]1CSSC[C@@H](C(N)=O)NC(=O)[C@H](CCC)NC(=O)[C@H]([C@@H](C)CC)NC(=O)[C@@H]2C[C@@H](O)CN2C(=O)[C@@H]2C[C@H](F)CN2C(=O)[C@H](Cc2ccccc2)NC(=O)[C@H](Cc2ccc(C(N)=O)cc2)NC(=O)[C@H](CCCNC(=O)CN2CCN(CC(=O)O)CCN(CC(=O)O)CCN(CC(=O)O)CC2)NC(=O)[C@H]([C@@H](C)O)NC1=O` [UPAR-276, Butoc-[Cys-Thr-Orn(DOTA)-Pcnf-Phe-4Cfp-Hyp-Ile-Nva-Cys]-NHz] (Butoxycarbonyl-CT[Orn](DOTA)[Phe(4-CONH2)]F[Pro(cis-4-F)][Hyp]I[Nva]C-NH2; disulfide 1-10): the fraction remaining at 6 h, 9.8 µM was 89% in data set [1] and above 95% in data set [2]. Moreover, the Kd at human uPAR (uPAR-Fc) was below 1.58 nM.
